The supplement of paper PMC9512659

Key:
[1] = tested on: Mycobacterium tuberculosis Erdman (pMV306hsp+LuxG13); test: GRinf, normalised growth-rate inhibition at infinite dose (GR value (unitless, negative = killing)); higher = less potent
Method: (§1)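 DiaMOND pairwise dose responses of an equipotent two-drug mixture (1.5-fold, 10-dose series) against autoluminescent M. tuberculosis Erdman in 384-well plates. Growth inhibition was read by OD600 (luminescence for dormancy) in seven media at a constant and a terminal time point; metrics are means of at least biological duplicates. Einf and AUC25 higher = more potent; GRinf lower = more potent; log2FIC negative = synergy.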

[2] = tested on: Mycobacterium tuberculosis Erdman (pMV306hsp+LuxG13); test: log2 fractional inhibitory concentration at 90% inhibition (log2 FIC); higher = more antagonistic
Method: as §1

[3] = tested on: Mycobacterium tuberculosis Erdman (pMV306hsp+LuxG13); test: AUC25, normalised area under the dose-response curve up to IC25 (normalised AUC (unitless)); higher = more potent
Method: as §1

[4] = tested on: Mycobacterium tuberculosis Erdman (pMV306hsp+LuxG13); test: log2 fractional inhibitory concentration at 50% inhibition (log2 FIC); higher = more antagonistic
Method: as §1

[5] = tested on: Mycobacterium tuberculosis Erdman (pMV306hsp+LuxG13); test: Einf, effect of the drug pair at infinite dose (maximum growth inhibition) (fraction inhibition (0-1)); higher = more potent; extreme values may be limits of the assay
Method: as §1

CO[C@H]1/C=C/O[C@@]2(C)Oc3c(C)c(O)c4c(O)c(c(/C=N/N5CCN(C)CC5)c(O)c4c3C2=O)NC(=O)/C(C)=C\C=C\[C@H](C)[C@H](O)[C@@H](C)[C@@H](O)[C@@H](C)[C@H](OC(C)=O)[C@@H]1C [rifampicin] + CC(C)=CCC/C(C)=C/CNCCNC1C2CC3CC(C2)CC1C3 [SQ109]
Settings	AUC25, [3]	Einf, [5]	GRinf, [1]	log2 fractional inhibitory concentration, [2]	log2 fractional inhibitory concentration, [4]
growth medium: butyrate 5 mM, time point: constant time point	0.0902	0.914	-0.0141	–	0.188
growth medium: butyrate 5 mM, time point: terminal time point	0.0763	0.959	-0.032	-0.456	0.0743
growth medium: cholesterol 0.2 mM (cholesterol-high), time point: constant time point	0.03	0.992	-0.905	-0.46	0.231
growth medium: cholesterol 0.2 mM (cholesterol-high), time point: terminal time point	0.0325	0.999	-0.83	-0.383	0.286
growth medium: standard 7H9 OADC glycerol, time point: constant = terminal time point (4.2 d)	0.0536	0.909	0.0752	–	0.0639
growth medium: valerate 0.1%, time point: constant time point	0.0301	0.956	0.0222	-0.583	-0.112
growth medium: valerate 0.1%, time point: terminal time point	0.0271	0.962	0.0133	-0.625	-0.128

growth medium: hypoxic dormancy (butyrate + nitrate), then recovery
Settings	AUC25, [3]	Einf, [5]	GRinf, [1]	log2 fractional inhibitory concentration, [2]	log2 fractional inhibitory concentration, [4]
time point: constant time point	0.0556	0.984	-0.371	-1.97	-1.51
time point: terminal time point	0.0342	0.964	0.12	-1.05	-0.863

CO[C@H]1/C=C/O[C@@]2(C)Oc3c(C)c(O)c4c(O)c(c(/C=N/N5CCN(C6CCCC6)CC5)c(O)c4c3C2=O)NC(=O)/C(C)=C\C=C\[C@H](C)[C@H](O)[C@@H](C)[C@@H](O)[C@@H](C)[C@H](OC(C)=O)[C@@H]1C [rifapentine] + CC(=O)NC[C@H]1CN(c2ccc(N3CCSCC3)c(F)c2)C(=O)O1 [sutezolid]
Settings	AUC25, [3]	Einf, [5]	GRinf, [1]	log2 fractional inhibitory concentration, [2]	log2 fractional inhibitory concentration, [4]
growth medium: acidic pH 5.7, glycerol, time point: constant time point	0.0889	0.884	-0.224	–	-0.201
growth medium: acidic pH 5.7, glycerol, time point: terminal time point	0.0808	0.987	-0.263	-0.527	0.0996
growth medium: butyrate 5 mM, time point: constant time point	0.0809	0.896	0.0472	–	0.129
growth medium: butyrate 5 mM, time point: terminal time point	0.0542	0.942	0.0324	-0.276	0.16
growth medium: cholesterol 0.05 mM, time point: constant time point	0.0962	1	-1	0.00059	-0.454
growth medium: cholesterol 0.05 mM, time point: terminal time point	0.135	1	-1	-0.142	-1.5
growth medium: cholesterol 0.2 mM (cholesterol-high), time point: constant time point	0.0718	1	-1	-0.285	-0.331
growth medium: cholesterol 0.2 mM (cholesterol-high), time point: terminal time point	0.0787	1	-0.769	-0.276	-0.38
growth medium: standard 7H9 OADC glycerol, time point: constant = terminal time point (4.2 d)	0.0417	0.983	-0.0675	-0.509	-0.00234
growth medium: valerate 0.1%, time point: constant time point	0.107	0.877	-0.107	–	-0.128
growth medium: valerate 0.1%, time point: terminal time point	0.0657	0.976	-0.0835	0.234	0.176

growth medium: hypoxic dormancy (butyrate + nitrate), then recovery
Settings	AUC25, [3]	Einf, [5]	GRinf, [1]	log2 fractional inhibitory concentration, [2]	log2 fractional inhibitory concentration, [4]
time point: constant time point	0.0482	0.974	0.21	-0.514	-0.541
time point: terminal time point	0.0473	0.963	0.209	0.244	0.397
